Assay results: patent US20260193249A1, “PREPARATION OF PYRAZOLOPYRIDINE AND TRIAZOLOPYRIDINE DERIVATIVES AS NOVEL DIACYLGLYCERIDE O-ACYLTRANSFERASE 2 INHIBITORS” (Merck Sharp & Dohme LLC, priority 2022, published 2026)

Molecular target: T1, human DGAT2 (Homo sapiens, UniProt Q96PD7)
T1 construct: made in house; host or cells: Sf-9 insect cells (baculovirus), membrane fraction
T1 sequence (Q96PD7 1-388): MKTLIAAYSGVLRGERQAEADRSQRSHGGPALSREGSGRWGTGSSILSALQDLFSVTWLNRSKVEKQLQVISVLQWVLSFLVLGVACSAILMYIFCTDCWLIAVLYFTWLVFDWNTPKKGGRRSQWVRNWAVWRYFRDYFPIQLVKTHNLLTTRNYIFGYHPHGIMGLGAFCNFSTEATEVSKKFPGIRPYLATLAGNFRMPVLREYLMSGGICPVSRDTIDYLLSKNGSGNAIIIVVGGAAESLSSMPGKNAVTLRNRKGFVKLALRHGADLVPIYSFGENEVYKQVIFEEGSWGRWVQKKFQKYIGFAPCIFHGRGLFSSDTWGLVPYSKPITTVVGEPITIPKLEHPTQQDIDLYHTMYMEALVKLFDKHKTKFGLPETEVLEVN
Assay: DGAT2 Enzymatic Activity Assay
Type: biochemical
Conditions: membrane prep of Sf-9 insect cells expressing hDGAT2; 13C18-triolein product by LC/MS/MS; 25 μM diolein, 5 μM 13C oleoyl-CoA
Protocol: Sf-9 insect cells were maintained in Grace's insect cell culture medium with 10% heated-inactivated fetal bovine serum, 1% Pluronic F-68 and 0.14 μg/ml Kanamycine sulfate at 27° C. in a shaker incubator. After infection with untagged baculovirus expressing human DGAT2 (hDGAT2) at multiplicity of infection (MOI) 3 for 48 hours, cells were harvested. Cell pellets were suspended in buffer containing 10 mM Tris-HCl pH 7.5, 1 mM EDTA, 250 mM sucrose and Complete Protease Inhibitor Cocktail (Sigma Aldrich), and sonicated on ice. Cell debris were removed by centrifugation at 2000×g for 15 minutes. Membrane fractions were isolated by ultracentrifugation (100,000×g), resuspended in the same buffer, and frozen (−80° C.) for later use. The protein concentration was determined with the Pierce™ BCA Protein Assay Kit (Thermo Fisher Scientific).
LC/MS/MS analyses were performed using Thermal Fisher's LX4-TSQ Vantage system. This system consists of an Agilent binary high-performance liquid chromatography (HPLC) pump and a TSQ Vantage triple quadrupole MS/MS instrument. For each sample, 2 μL samples from the top organic layer of in-plate liquid-liquid extraction were injected onto a Thermo Betabasic C4 column (2.1 mm×20 mm, 5 μm particle size). The samples were then eluted using the following conditions; mobile phase: Isopropanol:acetonitrile/10 mM ammonium formate=50/35/15 (v/v/v), flow rate: 0.8 mL/min, temperature: 25° C. Data was acquired in positive mode using a heated electrospray ionization (HESI) interface. […] The peak area was integrated by Xcalibur Quan software. The ratio between the ^13C18triolein generated in the reaction and spiked in internal standard ^13C21-triolein was used to generate percentage inhibition and IC50 values. Compound percentage inhibition was calculated by the following formula: Inhibition %=1−[(compound response−low control)/(high control−low control)]×100%.
DGAT2 activity was determined by measuring the amount of enzymatic product ^13C18-triolein (^13C-1,2,3-Tri(cis-9-octadecenoyl)glycerol) using the membrane prep mentioned above. The assay was carried out in ABgene 384-well assay plates in a final volume of 25 μL at rt.

SMILES | IC50 [nM]
CC1(NC(=O)c2cc3cc(Oc4ncc(F)cc4OCC(F)F)ccn3n2)CS(=O)(=O)C1 [Example 11, 5-((3-(2,2-Difluoroethoxy)-5-fluoropyridin-2-yl)oxy)-N-(3-methyl-1,1-dioxidothietan-3-yl)pyrazolo[1,5-a]pyridine-2-carboxamide] | 2.5
CC(C)(CNS(C)(=O)=O)NC(=O)c1cc2cc(Oc3ncccc3OCC(F)(F)F)ccn2n1 [Example 3, N-(2-Methyl-1-(methylsulfonamido)propan-2-yl)-5-((3-(2,2,2-trifluoroethoxy)pyridin-2-yl)oxy)pyrazolo[1,5-a]pyridine-2-carboxamide] | 694
CC1(NC(=O)c2cc3cc(Oc4ncc(Cl)cc4OCC(F)(F)F)ccn3n2)CS(=O)(=O)C1 [Example 15, 5-((5-Chloro-3-(2,2,2-trifluoroethoxy)pyridin-2-yl)oxy)-N-(3-methyl-1,1-dioxidothietan-3-yl)pyrazolo[1,5-a]pyridine-2-carboxamide] | 2.5
O=C(NC1CCCC1)c1cc2cc(Oc3ncccc3OCC(F)(F)F)ccn2n1 [Example 7, N-Cyclopentyl-5-((3-(2,2,2-trifluoroethoxy)pyridin-2-yl)oxy)pyrazolo[1,5-a]pyridine-2-carboxamide] | 1070
CC1(NC(=O)c2nn3ccc(Oc4ncccc4OCC(F)(F)F)cc3c2F)CS(=O)(=O)C1 [Example 22, 3-Fluoro-N-(3-methyl-1,1-dioxidothietan-3-yl)-5-((3-(2,2,2-trifluoroethoxy)pyridin-2-yl)oxy)pyrazolo[1,5-a]pyridine-2-carboxamide] | 372
CC(O)c1cnc(Oc2ccn3nc(C(=O)NC4(C)CCS(=O)(=O)CC4)cc3c2)c(OCC(F)(F)F)c1 (single isomer, unassigned) [Example 44b, 5-((5-(1-Hydroxyethyl)-3-(2,2,2-trifluoroethoxy)pyridin-2-yl)oxy)-N-(4-methyl-1,1-dioxidotetrahydro-2H-thiopyran-4-yl)pyrazolo[1,5-a]pyridine-2-carboxamide] | 332
CC(O)c1cnc(Oc2ccn3nc(C(=O)NC4(C)CCS(=O)(=O)CC4)cc3c2)c(OCC(F)(F)F)c1 (single isomer, unassigned) [Example 44a, 5-((5-(1-Hydroxyethyl)-3-(2,2,2-trifluoroethoxy)pyridin-2-yl)oxy)-N-(4-methyl-1,1-dioxidotetrahydro-2H-thiopyran-4-yl)pyrazolo[1,5-a]pyridine-2-carboxamide] | 111

Further lines, results first:

IC50 [nM] | SMILES
6.6 | Cc1c(Oc2ncc(F)cc2OCC(F)(F)F)ccn2nc(C(=O)NC3(C)CCS(=O)(=O)CC3)cc12 [Example 58, 5-((5-Fluoro-3-(2,2,2-trifluoroethoxy)pyridin-2-yl)oxy)-4-methyl-N-(4-methyl-1,1-dioxidotetrahydro-2H-thiopyran-4-yl)pyrazolo[1,5-a]pyridine-2-carboxamide]
828 | CC1(NC(=O)c2nn3ccc(Oc4ncccc4OCC(F)(F)F)cc3c2C(F)(F)F)CCS(=O)(=O)CC1 [Example 51, N-(4-Methyl-1,1-dioxidotetrahydro-2H-thiopyran-4-yl)-5-((3-(2,2,2-trifluoroethoxy)pyridin-2-yl)oxy)-3-(trifluoromethyl)pyrazolo[1,5-a]pyridine-2-carboxamide]
20 | CC1(NC(=O)c2cc3c(F)c(Oc4ncc(F)cc4OCC(F)(F)F)ccn3n2)CCS(=O)(=O)CC1 [Example 56, 4-Fluoro-5-((5-fluoro-3-(2,2,2-trifluoroethoxy)pyridin-2-yl)oxy)-N-(4-methyl-1,1-dioxidotetrahydro-2H-thiopyran-4-yl)pyrazolo[1,5-a]pyridine-2-carboxamide]
160 | O=C(NC1(CC(F)(F)F)CCS(=O)(=O)CC1)c1nc2cc(Oc3ncc(Cl)cc3OCC(F)(F)F)ccn2n1 [Example 65, 7-((5-Chloro-3-(2,2,2-trifluoroethoxy)pyridin-2-yl)oxy)-N-(1,1-dioxido-4-(2,2,2-trifluoroethyl)tetrahydro-2H-thiopyran-4-yl)-[1,2,4]triazolo[1,5-a]pyridine-2-carboxamide]
